{"source": "ChEMBL document CHEMBL4190167", "about": "(Medchemcomm, 2016)", "key": {"HUVEC": {"test_system": "HUVEC", "experiment": "Cytotoxicity against HUVEC assessed as effect on cell viability up to 100 uM after 24 hrs by WST1 assay", "assay_type": "cell-based", "details": "human"}, "MCF7": {"test_system": "MCF7", "experiment": "Cytotoxicity against human MCF7 cells assessed as effect on cell viability up to 100 uM after 24 hrs by WST1 assay", "assay_type": "cell-based", "details": "mcf7, 24 h"}}}
{"compound": "COC(=O)[C@]1(C)CCC[C@]2(C)c3cc4oc(C)nc4cc3C[C@@H](O)[C@@H]12", "values": [{"measurement": "Activity", "setting": "HUVEC", "result": "Non-Toxic"}, {"measurement": "Activity", "setting": "MCF7", "result": "Non-Toxic"}]}
{"compound": "CCOC(=O)[C@]1(C)CCC[C@]2(C)c3cc4occc4cc3C[C@@H](O)[C@@H]12", "values": [{"measurement": "Activity", "setting": "HUVEC", "result": "Non-Toxic"}, {"measurement": "Activity", "setting": "MCF7", "result": "Non-Toxic"}]}
